Test results from patent publication EP1984353B1, “AURORA KINASE MODULATORS AND METHOD OF USE” (Amgen, Inc, priority 2006, dated 2007).

How the values were obtained:
AuroraB = target: T1, AuroraB (Homo sapiens, UniProt Q96GD4); experiment: AuroraB Homogeneous Time Resolved Fluorescent (HTRF) kinase assay; format: biochemical; details: average; given as class symbols; read-out: AurB_ _IC50_IP (Avg)
T1 construct: 20 µL of AuroraB FL His; His
Outline: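 HTRF read-out: after EDTA stop and ~60 min with europium anti-phospho-H3 antibody and streptavidin-APC, 655/615 nm ratio reports phosphorylation. Reaction: 400 pM AuroraB FL His, 23 µM ATP (at Km(app)), 0.1 µM biotin-Histone H3 peptide, 50 mM HEPES pH 7.5, MgCl/MnCl, ~90 min.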

AuroraA-TPX2 = target: T2, AuroraA-TPX2 (Homo sapiens, UniProt O14965); experiment: AuroraA-TPX2 Homogeneous Time Resolved Fluorescent (HTRF) kinase assay; format: biochemical; details: average; given as class symbols; read-out: AurA/TP X2_ IC50_IP (Avg)
T2 construct: 20 µL of AuroraA-TPX2 KD GST; GST
T2 sequence (O14965 133-383 limits assumed): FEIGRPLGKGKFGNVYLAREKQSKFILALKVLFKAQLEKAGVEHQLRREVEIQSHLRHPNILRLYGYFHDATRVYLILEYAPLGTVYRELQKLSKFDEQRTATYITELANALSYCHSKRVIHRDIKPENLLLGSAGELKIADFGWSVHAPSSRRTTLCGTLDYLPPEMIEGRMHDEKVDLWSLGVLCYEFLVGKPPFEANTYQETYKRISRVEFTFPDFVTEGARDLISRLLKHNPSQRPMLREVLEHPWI
T2 sequence (Q9ULW0 1-43 partner limits assumed): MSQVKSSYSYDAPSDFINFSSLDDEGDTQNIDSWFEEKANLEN
Outline: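 HTRF read-out: europium anti-phosphoPLK antibody (0.02 nM) plus streptavidin-APC detect phosphorylated biotin-PLK after EDTA stop and overnight equilibration. Kinase step runs about 120 min with Aurora-A/TPX2, ATP and roughly 1 µM PLK peptide at pH 7.5 HEPES buffer with Mg2+ and DTT.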

[1] = tested on: phosphorylation of Histone H3; experiment: HeLa cell 1-hour phospho-histone assay; format: cell-based; details: Homo sapiens, HeLa, 1 h, HeLa cells, 1 hour; average; given as class symbols; read-out: pHH3 EC50_IP (Avg)
Outline: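 HeLa cells were exposed to serially diluted compounds for 1 hour at 37 °C (0.5% DMSO final), then fixed, permeabilized and immunostained for phospho-histone H3 (Ser10) with Hoechst counterstain. High-content imaging scored the percentage of pHH3-positive cells.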

T1 sequence (Q96GD4 whole entry): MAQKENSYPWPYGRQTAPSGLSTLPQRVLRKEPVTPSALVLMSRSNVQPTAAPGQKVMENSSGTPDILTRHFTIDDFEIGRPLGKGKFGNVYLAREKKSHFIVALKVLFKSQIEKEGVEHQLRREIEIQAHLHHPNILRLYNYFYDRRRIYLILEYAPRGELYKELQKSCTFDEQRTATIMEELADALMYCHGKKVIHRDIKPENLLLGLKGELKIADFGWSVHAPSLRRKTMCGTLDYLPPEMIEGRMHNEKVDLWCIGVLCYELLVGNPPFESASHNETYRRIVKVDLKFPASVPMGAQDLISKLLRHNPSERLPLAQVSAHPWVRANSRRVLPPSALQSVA

SMILES | IC50 (AuroraB) | IC50 (AuroraA-TPX2) | EC50 [1]
Nc1nccc(-c2cccnc2Oc2ccc(Nc3nnc(-c4cccc(CO)c4)c4ccccc34)cc2)n1 [compound 342, (3-(4-((4-((3-(2-amino-4-pyrimidinyl)-2-pyridinyl)oxy)phenyl)amino)-1-phthalazinyl)phenyl)methanol] | ≤ 100 nM | ≤ 100 nM | 100 to 500 nM
Nc1nccc(-c2cccnc2Oc2ccc(Nc3nnc(-c4cccc(O)c4)c4ccccc34)cc2)n1 [compound 343, 3-(4-((4-((3-(2-amino-4-pyrimidinyl)-2-pyridinyl)oxy)phenyl)amino)-1-phthalazinyl)phenol] | ≤ 100 nM | ≤ 100 nM | ≤ 100 nM
Nc1nccc(-c2cccnc2Oc2ccc(Nc3nnc(-c4cccc(CCCO)c4)c4ccccc34)cc2)n1 [compound 344, 3-(3-(4-((4-((3-(2-amino-4-pyrimidinyl)-2-pyridinyl)oxy)phenyl)amino)-1-phthalazinyl)phenyl)-1-propanol] | ≤ 100 nM | ≤ 100 nM | ≤ 100 nM
Cc1csc(-c2nnc(Nc3ccc(Oc4ncccc4-c4ccnc(N)c4)cc3)c3ccccc23)n1 [compound 345, 2-((4-((4-(4-methyl-1,3-thiazol-2-yl)-1-phthalazinyl)amino)phenyl)oxy)-3,4'-bipyridin-2'-amine] | ≤ 100 nM | ≤ 100 nM | 100 to 500 nM
CC(O)c1cccc(-c2nnc(Nc3ccc(Oc4ncccc4-c4ccnc(N)n4)cc3)c3ccccc23)c1 (stereo not drawn) [compound 346, 1-(3-(4-((4-((3-(2-amino-4-pyrimidinyl)-2-pyridinyl)oxy)phenyl)amino)-1-phthalazinyl)phenyl)ethanol] | ≤ 100 nM | ≤ 100 nM | 100 to 500 nM
CCN(CCO)CCCCNc1nccc(-c2cccnc2Oc2ccc(Nc3nnc(-c4ccccc4)c4ccccc34)cc2)n1 [compound 347, 2-(ethyl(4-((4-(2-((4-((4-phenyl-1-phthalazinyl)amino)phenyl)oxy)-3-pyridinyl)-2-pyrimidinyl)amino)butyl)amino)ethanol] | ≤ 100 nM | ≤ 100 nM | ≤ 100 nM
CCN(CCO)CCCCNc1nccc(-c2cccnc2Oc2ccc(Nc3nnc(-c4ccccc4)cc3C)cc2)n1 [compound 348, 2-(ethyl(4-((4-(2-((4-((4-methyl-6-phenyl-3-pyridazinyl)amino)phenyl)oxy)-3-pyridinyl)-2-pyrimidinyl)amino)butyl)amino)ethanol] | ≤ 100 nM | ≤ 100 nM | 100 to 500 nM
CCN(CCO)CCCNc1nccc(-c2cccnc2Oc2ccc(Nc3nnc(-c4ccccc4)c4ccccc34)cc2)n1 [compound 349, 2-(ethyl(3-((4-(2-((4-((4-phenyl-1-phthalazinyl)amino)phenyl)oxy)-3-pyridinyl)-2-pyrimidinyl)amino)propyl)amino)ethanol] | ≤ 100 nM | 100 to 500 nM | 100 to 500 nM
CCN(CCO)CCCNc1nccc(-c2cccnc2Oc2ccc(Nc3nnc(-c4ccccc4)cc3C)cc2)n1 [compound 350, 2-(ethyl(3-((4-(2-((4-((4-methyl-6-phenyl-3-pyridazinyl)amino)phenyl)oxy)-3-pyridinyl)-2-pyrimidinyl)amino)propyl)amino)ethanol] | ≤ 100 nM | ≤ 100 nM | 100 to 500 nM
Cc1cc(-c2ccccc2)nnc1Nc1ccc(Oc2ncccc2-c2ccncc2)cc1 [compound 417, N-(4-(3,4'-bipyridin-2-yloxy)phenyl)-4-methyl-6-phenyl-3-pyridazinamine] | ≤ 100 nM | ≤ 100 nM | 500 to 2500 nM
O=S(=O)(O)CCCNc1nccc(-c2cccnc2Oc2ccc(Nc3nnc(-c4ccccc4)c4ccccc34)cc2)n1 [compound 421, 3-((4-(2-((4-((4-phenyl-1-phthalazinyl)amino)phenyl)oxy)-3-pyridinyl)-2-pyrimidinyl)amino)-1-propanesulfonic acid] | 100 to 500 nM | 100 to 500 nM | 500 to 2500 nM
Cc1cc(-c2ccccc2)nnc1Nc1ccc(Oc2ncccc2-c2ccnc(NCCCN3CCN(C)CC3)n2)cc1 [compound 422, 4-methyl-N-(4-((3-(2-((3-(4-methyl-1-piperazinyl)propyl)amino)-4-pyrimidinyl)-2-pyridinyl)oxy)phenyl)-6-phenyl-3-pyridazinamine] | ≤ 100 nM | ≤ 100 nM | 100 to 500 nM
Cc1cc(-c2ccccc2)nnc1Nc1ccc(Oc2ncccc2-c2ccnc(NCCCCN(C)C)n2)cc1 [compound 423, N,N-dimethyl-N'-(4-(2-((4-((4-methyl-6-phenyl-3-pyridazinyl)amino)phenyl)oxy)-3-pyridinyl)-2-pyrimidinyl)-1,4-butanediamine] | ≤ 100 nM | ≤ 100 nM | 100 to 500 nM
Cc1cc(-c2ccccc2)nnc1Nc1ccc(Oc2ncccc2-c2ccnc(NCCCN3CCCCC3)n2)cc1 [compound 424, 4-methyl-6-phenyl-N-(4-((3-(2-((3-(1-piperidinyl)propyl)amino)-4-pyrimidinyl)-2-pyridinyl)oxy)phenyl)-3-pyridazinamine] | ≤ 100 nM | ≤ 100 nM | 100 to 500 nM
Cc1cc(-c2ccccc2)nnc1Nc1ccc(Oc2ncccc2-c2ccnc(NCCCN3CCCC3)n2)cc1 [compound 425, 4-methyl-6-phenyl-N-(4-((3-(2-((3-(1-pyrrolidinyl)propyl)amino)-4-pyrimidinyl)-2-pyridinyl)oxy)phenyl)-3-pyridazinamine] | ≤ 100 nM | ≤ 100 nM | 100 to 500 nM
CCN(CC)CCCNc1nccc(-c2cccnc2Oc2ccc(Nc3nnc(-c4ccccc4)cc3C)cc2)n1 [compound 426, N,N-diethyl-N'-(4-(2-((4-((4-methyl-6-phenyl-3-pyridazinyl)amino)phenyl)oxy)-3-pyridinyl)-2-pyrimidinyl)-1,3-propanediamine] | ≤ 100 nM | ≤ 100 nM | 100 to 500 nM
Nc1nccc(-c2cccnc2Oc2ccc(Nc3nnc(-c4ccccc4)cc3C(=O)O)cc2)n1 [compound 433, 3-((4-((3-(2-amino-4-pyrimidinyl)-2-pyridinyl)oxy)phenyl)amino)-6-phenyl-4-pyridazinecarboxylic acid] | 500 to 2500 nM | 500 to 2500 nM | 500 to 2500 nM
